Measured values as given in the NIST ThermoML archive (doi:10.1016/j.tca.2016.11.008).
± gives the expanded uncertainty stated by the source.

Test: xn = mol fraction of the nth substance listed
Details: 101.3 kPa, Liquid, Vibrating tube method

| mass density (303.15 K, x1 = 0.667) | mass density (313.15 K, x1 = 0.667) | mass density (323.15 K, x1 = 0.667) | mass density (333.15 K, x1 = 0.667) | mass density (343.15 K, x1 = 0.667) | mass density (353.15 K, x1 = 0.667) | mass density (303.15 K, x2 = 0.333) | mass density (313.15 K, x2 = 0.333) | mass density (323.15 K, x2 = 0.333) | mass density (333.15 K, x2 = 0.333) | mass density (343.15 K, x2 = 0.333) | mass density (353.15 K, x2 = 0.333) | SMILES |
| --- | --- | --- | --- | --- | --- | --- | --- | --- | --- | --- | --- | --- |
| 1239.7 ± 3.4 kg/m3 | 1234.6 ± 3.3 kg/m3 | 1229.4 ± 3.3 kg/m3 | 1224.3 ± 3.3 kg/m3 | 1219.2 ± 3.3 kg/m3 | 1214 ± 3.3 kg/m3 | – | – | – | – | – | – | C[N+](C)(C)CCO.[Cl-] [choline chloride] + O=C[C@H](O)[C@@H](O)[C@H](O)[C@H](O)CO |
| – | – | – | – | – | – | 1125.4 ± 3.1 kg/m3 | 1118.9 ± 3.1 kg/m3 | 1112.5 ± 3 kg/m3 | 1106.2 ± 3 kg/m3 | 1099.8 ± 3 kg/m3 | 1093.5 ± 3 kg/m3 | OCCOCCOCCO [triethylene glycol] + C[N+](C)(C)CCO.[Cl-] |
